In patent US20260374756A1, “HETEROCYCLIC COMPOUNDS AS INHIBITORS OF MONOACYLGLYCEROL LIPASE (MAGL)” (Hoffmann-La Roche Inc., priority 2022, published 2026) one finds IC50 data, which are given here for 25 molecules.

The target in this assay is T1, hMAGL (Homo sapiens, UniProt Q99685).
T1 sequence (Q99685 1-303): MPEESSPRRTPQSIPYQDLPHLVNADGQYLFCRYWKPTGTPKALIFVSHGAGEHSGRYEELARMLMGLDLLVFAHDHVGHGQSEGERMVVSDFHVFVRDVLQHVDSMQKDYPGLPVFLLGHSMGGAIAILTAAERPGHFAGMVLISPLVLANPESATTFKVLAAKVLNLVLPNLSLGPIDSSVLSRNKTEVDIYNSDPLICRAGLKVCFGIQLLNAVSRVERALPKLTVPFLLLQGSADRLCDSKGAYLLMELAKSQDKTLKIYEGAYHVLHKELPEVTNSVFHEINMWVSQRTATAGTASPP
Kind of assay: 2-AG assay: MAGL inhibition, hydrolysis of 2-arachidonoylglycerol to arachidonic acid followed by mass spectrometry. In kind it is biochemical. The gist of the method: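 Read-out is LC-MS/MS of arachidonic acid released from 2-arachidonoylglycerol (8 μM final), normalised to d8-arachidonic acid internal standard after acetonitrile quench. Enzyme […] and compound were pre-mixed 15 min, then reacted 30 min, both at RT, in Tris/EDTA buffer with 0.01% Tween-20 and 2.5% DMSO.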
For orientation: IC50 means the concentration at which inhibition is half-maximal. Lower therefore signals greater potency in that assay. Consider `O=C(N1CC2(CC(Oc3nc(C(F)(F)F)cs3)C2)C1)N1CC2(CC(n3cnc(C4(O)CC4)n3)C2)C1` [Example 13, [6-[3-(1-hydroxycyclopropyl)-1,2,4-triazol-1-yl]-2-azaspiro[3.3]heptan-2-yl]-[6-[4-(trifluoromethyl)thiazol-2-yl]oxy-2-azaspiro[3.3]heptan-2-yl]methanone], for which half-maximal inhibition (IC50) required 14.9 nM.
For the molecule `O=C(N1CC2(CC(Cn3ncnc3C(F)(F)F)C2)C1)N1CC2(CC(n3cnc(C4(O)CC4)n3)C2)C1` [Example 325, [6-[3-(1-hydroxycyclopropyl)-1,2,4-triazol-1-yl]-2-azaspiro[3.3]heptan-2-yl]-[6-[[5-(trifluoromethyl)-1,2,4-triazol-1-yl]methyl]-2-azaspiro[3.3]heptan-2-yl]methanone], the 50% inhibitory concentration (IC50) came out at 23.1 nM.
`O=C(N1CC2(CC(c3cc(C4CC4)n[nH]3)C2)C1)N1CC2(CN(Cc3ccnn3C(F)(F)F)C2)C1` [Example 224, [6-(3-cyclopropyl-1H-pyrazol-5-yl)-2-azaspiro[3.3]heptan-2-yl]-[6-[[2-(trifluoromethyl)pyrazol-3-yl]methyl]-2,6-diazaspiro[3.3]heptan-2-yl]methanone] displayed an IC50 of 20.2 nM.
As for `O=C(N1CC2(CC(Cn3cc(C(F)(F)F)nn3)C2)C1)N1CC2(CC(c3cc(C4CC4)n[nH]3)C2)C1` [Example 103, [6-(3-cyclopropyl-1H-pyrazol-5-yl)-2-azaspiro[3.3]heptan-2-yl]-[6-[[4-(trifluoromethyl)triazol-1-yl]methyl]-2-azaspiro[3.3]heptan-2-yl]methanone], inhibition was half-maximal at 1.63 nM (IC50).
`O=C(N1CC2(CC(Cc3cc(C(F)(F)F)n[nH]3)C2)C1)N1CC2(CC(n3cnc(C4(O)CC4)n3)C2)C1` [Example 299, [6-[3-(1-hydroxycyclopropyl)-1,2,4-triazol-1-yl]-2-azaspiro[3.3]heptan-2-yl]-[6-[[3-(trifluoromethyl)-1H-pyrazol-5-yl]methyl]-2-azaspiro[3.3]heptan-2-yl]methanone] displayed an IC50 of 1.83 nM.
The molecule `CS(=O)(=O)c1cnn(CC2CC3(C2)CN(C(=O)N2CC4(CC(n5cnc(C6(O)CC6)n5)C4)C2)C3)c1` [Example 313, [6-[3-(1-hydroxycyclopropyl)-1,2,4-triazol-1-yl]-2-azaspiro[3.3]heptan-2-yl]-[6-[(4-mesylpyrazol-1-yl)methyl]-2-azaspiro[3.3]heptan-2-yl]methanone] yielded an IC50 of 165 nM.
For the molecule `O=C(N1CC2(CCN(Cc3cc(C(F)(F)F)on3)CC2)C1)N1CC2(CC(n3cnc(C4CC4)n3)C2)C1` [Example 80, [6-(3-cyclopropyl-1,2,4-triazol-1-yl)-2-azaspiro[3.3]heptan-2-yl]-[7-[[5-(trifluoromethyl)isoxazol-3-yl]methyl]-2,7-diazaspiro[3.5]nonan-2-yl]methanone], inhibition was half-maximal at 8.61 nM (IC50).
`O=C(N1CC2(CC(Cc3cnn4c(C(F)(F)F)ccnc34)C2)C1)N1CC2(CC(n3cnc(C4CC4)n3)C2)C1` [Example 359, [6-(3-cyclopropyl-1,2,4-triazol-1-yl)-2-azaspiro[3.3]heptan-2-yl]-[6-[[7-(trifluoromethyl)pyrazolo[1,5-a]pyrimidin-3-yl]methyl]-2-azaspiro[3.3]heptan-2-yl]methanone] yielded an IC50 of 0.13 nM.
Then `O=C(N1CC2(CC(n3cnc(C(F)(F)F)n3)C2)C1)N1CC2(CN(Cc3nc(C4CC4)cs3)C2)C1` [Example 239, [6-[(4-cyclopropylthiazol-2-yl)methyl]-2,6-diazaspiro[3.3]heptan-2-yl]-[6-[3-(trifluoromethyl)-1,2,4-triazol-1-yl]-2-azaspiro[3.3]heptan-2-yl]methanone], with 18.5 nM; and `CCc1nsc(CN2CC3(C2)CN(C(=O)N2CC4(CC(n5cnc(C6CC6)n5)C4)C2)C3)n1` [Example 287, [6-(3-cyclopropyl-1,2,4-triazol-1-yl)-2-azaspiro[3.3]heptan-2-yl]-[6-[(3-ethyl-1,2,4-thiadiazol-5-yl)methyl]-2,6-diazaspiro[3.3]heptan-2-yl]methanone], with 135 nM.
In turn, `Cc1cc(C2CC2)n(CC2CC3(C2)CN(C(=O)N2CC4(CC(n5cnc(C6(O)CC6)n5)C4)C2)C3)n1` [Example 133, [6-[(5-cyclopropyl-3-methyl-pyrazol-1-yl)methyl]-2-azaspiro[3.3]heptan-2-yl]-[6-[3-(1-hydroxycyclopropyl)-1,2,4-triazol-1-yl]-2-azaspiro[3.3]heptan-2-yl]methanone] yielded an IC50 of 4.54 nM.
`Cn1nc(CC2CC3(C2)CN(C(=O)N2CC4(CC(n5cnc(C6(N)CC6)n5)C4)C2)C3)cc1C(F)(F)F` [Example 330, [6-[3-(1-aminocyclopropyl)-1,2,4-triazol-1-yl]-2-azaspiro[3.3]heptan-2-yl]-[6-[[l-methyl-5-(trifluoromethyl)pyrazol-3-yl]methyl]-2-azaspiro[3.3]heptan-2-yl]methanone]: inhibition was half-maximal at 11.8 nM (IC50).
Then `O=C(N1CC2(CC(Cc3nc(C(F)(F)F)no3)C2)C1)N1CC2(CC(n3cnc(C4(O)CC4)n3)C2)C1` [Example 138], with 18.1 nM; and `O=C(N1CC2(CC(n3cnc(C(F)(F)F)n3)C2)C1)N1CC2(CN(Cc3nc(CC4CC4)no3)C2)C1` [Example 264, [6-[[3-(cyclopropylmethyl)-1,2,4-oxadiazol-5-yl]methyl]-2,6-diazaspiro[3.3]heptan-2-yl]-[6-[3-(trifluoromethyl)-1,2,4-triazol-1-yl]-2-azaspiro[3.3]heptan-2-yl]methanone], with 76.3 nM; and `O=C(N1CC2(CC(Cc3cnn4ccc(C(F)(F)F)nc34)C2)C1)N1CC2(CC(n3cnc(C4CC4)n3)C2)C1` [Example 358, [6-(3-cyclopropyl-1,2,4-triazol-1-yl)-2-azaspiro[3.3]heptan-2-yl]-[6-[[5-(trifluoromethyl)pyrazolo[1,5-a]pyrimidin-3-yl]methyl]-2-azaspiro[3.3]heptan-2-yl]methanone], with 0.09 nM.
For `O=C(N1CC2(CC(n3cnc(C4CC4)n3)C2)C1)N1CC2(CN(Cc3cnn(C(F)F)c3)C2)C1` [Example 263, [6-(3-cyclopropyl-1,2,4-triazol-1-yl)-2-azaspiro[3.3]heptan-2-yl]-[6-[[1-(difluoromethyl)pyrazol-4-yl]methyl]-2,6-diazaspiro[3.3]heptan-2-yl]methanone], the concentration for half-maximal inhibition (IC50) stood at 102 nM.
Consider `O=C(N1CC2(CC(Cc3cc(C(F)F)n[nH]3)C2)C1)N1CC2(CC(n3cnc(C(F)F)n3)C2)C1` [Example 334, [6-[[3-(difluoromethyl)-1H-pyrazol-5-yl]methyl]-2-azaspiro[3.3]heptan-2-yl]-[6-[3-(difluoromethyl)-1,2,4-triazol-1-yl]-2-azaspiro[3.3]heptan-2-yl]methanone], for which inhibition was half-maximal at 9.74 nM (IC50).
`O=C(N1CC2(CCN(Cc3cc(C(F)(F)F)[nH]n3)CC2)C1)N1CC2(CC(n3cnc(C4CC4)n3)C2)C1` [Example 29, [6-(3-cyclopropyl-1,2,4-triazol-1-yl)-2-azaspiro[3.3]heptan-2-yl]-[7-[[5-(trifluoromethyl)-1H-pyrazol-3-yl]methyl]-2,7-diazaspiro[3.5]nonan-2-yl]methanone] showed an IC50 of 4.2 nM.
`O=C(N1CC2(CC(Cc3cc(C4CC4)n[nH]3)C2)C1)N1CC2(CC(n3cnc(C(F)(F)F)n3)C2)C1` [Example 123, [6-[(3-cyclopropyl-1H-pyrazol-5-yl)methyl]-2-azaspiro[3.3]heptan-2-yl]-[6-[3-(trifluoromethyl)-1,2,4-triazol-1-yl]-2-azaspiro[3.3]heptan-2-yl]methanone] returned a half-maximal inhibitory concentration (IC50) of 0.34 nM.
For the molecule `O=C(N1CC2(CC(Cc3cn(C4CC4)nc3C(F)(F)F)C2)C1)N1CC2(CC(n3cnc(C4CC4)n3)C2)C1` [Example 62, [6-(3-cyclopropyl-1,2,4-triazol-1-yl)-2-azaspiro[3.3]heptan-2-yl]-[6-[[1-cyclopropyl-3-(trifluoromethyl)pyrazol-4-yl]methyl]-2-azaspiro[3.3]heptan-2-yl]methanone], half-maximal inhibition (IC50) was put at 0.14 nM.
With `Cn1cnc(C#N)c1CN1CC2(C1)CN(C(=O)N1CC3(CC(n4cnc(C5(O)CC5)n4)C3)C1)C2` [Example 282, 5-[[2-[6-[3-(1-hydroxycyclopropyl)-1,2,4-triazol-1-yl]-2-azaspiro[3.3]heptane-2-carbonyl]-2,6-diazaspiro[3.3]heptan-6-yl]methyl]-1-methyl-imidazole-4-carbonitrile] the figure was 3730 nM; with `O=C(N1CC2(CC(n3cnc(C(F)(F)F)n3)C2)C1)N1CC2(CN(Cc3cn(CC(F)(F)F)nn3)C2)C1` [Example 107, [6-[[1-(2,2,2-trifluoroethyl)triazol-4-yl]methyl]-2,6-diazaspiro[3.3]heptan-2-yl]-[6-[3-(trifluoromethyl)-1,2,4-triazol-1-yl]-2-azaspiro[3.3]heptan-2-yl]methanone], 2670 nM.
Then `CCn1nc(C(F)(F)F)cc1CN1CC2(C1)CN(C(=O)N1CC3(CC(n4cnc(C(F)(F)F)n4)C3)C1)C2` [Example 169], with 8.89 nM.
The molecule `O=C(N1CC2(CC(Cc3cc(C(F)(F)F)n[nH]3)C2)C1)N1CC2(CC(c3cc(C4CC4)n[nH]3)C2)C1` [Example 297, [6-(3-cyclopropyl-1H-pyrazol-5-yl)-2-azaspiro[3.3]heptan-2-yl]-[6-[[3-(trifluoromethyl)-1H-pyrazol-5-yl]methyl]-2-azaspiro[3.3]heptan-2-yl]methanone] returned a half-maximal inhibitory concentration (IC50) of 0.12 nM.
The molecule `O=C(N1CC2(CC(n3cnc(C4CC4)n3)C2)C1)N1CC2(CN(Cc3nc[nH]c3C(F)(F)F)C2)C1` [Example 238, [6-(3-cyclopropyl-1,2,4-triazol-1-yl)-2-azaspiro[3.3]heptan-2-yl]-[6-[[5-(trifluoromethyl)-1H-imidazol-4-yl]methyl]-2,6-diazaspiro[3.3]heptan-2-yl]methanone] returned an IC50 of 42.8 nM.
